We go through 104 molecules from ChEMBL document CHEMBL3507680, “University of Dundee, Gates Library screen for HepG2 cell viability”.

The data set can be described thus: Human HepG2 cell viability assay in 384 well format. Further details: dose 125 nL, time 70.5 hour; concentration not given beside the values. The note with it: HepG2 cells, read-out: Inhibition. It is filed as toxicity, cell-based.

As for `CCOc1cc(CN(C)Cc2ccccc2)ccc1OC(F)F`, the cytotoxicity at 70.5 h is -6.62%.

In the case of `CSc1ccc(CN(C)Cc2noc(C(C)(C)C)n2)cc1`, the cytotoxicity at 70.5 h is -6.11%.

On to `CCOc1cc(CN(C)CCCO)ccc1OC(F)F`, for which the cytotoxicity at 70.5 h was -6.49%. Next, `COCC(NC(=O)c1cccnc1)c1cccc(C(F)(F)F)c1` (centres undefined): -5.85%; `CCc1nc(C2CCCN2Cc2nc(C(C)(C)C)no2)no1` (centres undefined): 2.43%; `CC(C)c1noc(CN(Cc2ccc(F)cc2)C2CC2)n1`: -8.41%. With `CN(Cc1noc(C(C)(C)C)n1)Cc1ccccc1N1CCCCC1`, the cytotoxicity at 70.5 h is -6.13%. `Cc1cc(CN2CCc3cncnc3C2)on1`: the cytotoxicity at 70.5 h is 9.54%.

In the case of `Cc1cnn(CCNCC(O)c2ccc3c(c2)OCCO3)c1` (centres undefined), the cytotoxicity at 70.5 h stood at 4.42%. In the case of `CCN(CC)c1ncc(CNC2CCc3nc(C)nn3C2)s1` (centres undefined), the cytotoxicity at 70.5 h was 4.79%. The same measure for `CN(CC(N)=O)C(=O)c1cc(Cl)c(Cl)n1C`: -5.05%. Take `Cc1nnc(C2Cc3ccccc3CN2Cc2ncc(Cl)n2C)o1` (centres undefined): the cytotoxicity at 70.5 h was -13.3%. Next, `C=C(C)CN1CCCC(NS(C)(=O)=O)C1` (centres undefined): -5.08%. Next, `CNC(=O)CN(C)C(=O)c1cc(Cl)c(Cl)n1C`: 17.1%; `CCNC(=O)NC(=O)CN1CCCC1c1nc(C2CCCCC2)co1` (centres undefined): -7.64%. The same measure for `NC(=O)NC(=O)CCN1CCCC1c1nc(C2CCCCC2)co1` (centres undefined): 13.4%; for `COCCCn1ccc(NC(=O)NCc2cccc(N(C)C)c2)n1`: -5.16%; for `CN(C)C(=O)CCCn1ccc(NC(=O)NCc2cccc(F)c2)n1`: -16.5%. As for `CCc1nc2n(n1)CC(NCc1cnc(N(CC)CC)s1)CC2` (centres undefined), the cytotoxicity at 70.5 h was -18.7%. With `Cc1cccc(CNC(=O)Nc2ccn(CCN(C)C)n2)c1`, the cytotoxicity at 70.5 h was -7.32%. `CN(CC(=O)Nc1cc(-c2cc(Cl)cc(Cl)c2)[nH]n1)S(C)(=O)=O`: the cytotoxicity at 70.5 h is -5.73%. Next, `Cn1ccnc1CN(CCCO)CC(F)(F)F`: 0.0577%; `CCc1cc(CNCc2ccccc2N(C)C2CCN(C)CC2)on1`: -1.28%. Next, `CN(C)CCn1ccc2cc(NC(=O)NCc3ncnn3C)ccc21`: -3.79%; `O=C(NCCO)NCC(c1ccccc1)N1CCc2sccc2C1` (centres undefined): -13.1%. Consider `CC(NC(=O)Nc1nccs1)c1ccncc1` (centres undefined), for which the cytotoxicity at 70.5 h was -10.5%.

`CC(NC(=O)Nc1nccs1)c1cccnc1` (centres undefined): the cytotoxicity at 70.5 h was -2.43%. As to `Cc1cccc(N2N=C(C(=O)NC(C)Cn3cccn3)CCC2=O)c1` (centres undefined), the cytotoxicity at 70.5 h is -14.7%. Next, `Cc1ccc(C(=O)NCC2COCCO2)c(=O)[nH]1` (centres undefined): -17%. On to `CCN1CCC(NC(=O)Cc2csc(C(C)(C)C)n2)CC1`, for which the cytotoxicity at 70.5 h is 24.8%. Next, `Cc1cc(NC(=O)Nc2ccc3c(ccn3CCN(C)C)c2)n(C)n1`: 2.58%; `Cn1cccc1-c1nnc(C2(c3ccc4c(c3)OCO4)CCOCC2)o1`: -9.42%. With `c1cncc(-c2nnc(C3(c4ccc5c(c4)OCO5)CCOCC3)o2)c1`, the cytotoxicity at 70.5 h is -15.4%. With `CCCc1noc(CCC(=O)N2CCCC(c3ccn[nH]3)C2)n1` (centres undefined), the cytotoxicity at 70.5 h was -9.26%. Next, `CCOCc1ccc(NC(=O)C(C)C)cc1`: 19.1%.

Consider `CCc1noc(CC)c1CC(=O)N1CCC(C(=O)NC(C)C)CC1`, for which the cytotoxicity at 70.5 h was -3.58%. Next, `CN(C)CCn1ccc2cc(NC(=O)NCc3ccon3)ccc21`: -8.32%. With `CCc1noc(C(C)SCCS(C)(=O)=O)n1` (centres undefined), the cytotoxicity at 70.5 h is -7.13%. The same measure for `CCOCCCC(=O)NCC(c1ccccc1)N1CCc2sccc2C1` (centres undefined): 16.8%; for `CC(C)(C)c1nc(CC(=O)NC2CCN(C3CC3)C2)cs1` (centres undefined): -6.08%; for `CCCNC(=O)CN1CCOC(CC)C1` (centres undefined): -15.7%. Next, `CCC1CN(CC(=O)NC(C)C)CCO1` (centres undefined): -10.4%; `CCC1CN(CC(=O)NCCOC)CCO1` (centres undefined): -4.46%.

With `CN1CCC(N(C)c2ccccc2CNCc2ccco2)CC1`, the cytotoxicity at 70.5 h was 30.3%.

Turning to `Cc1noc(C)c1CNCc1ccccc1N(C)C1CCN(C)CC1`, the cytotoxicity at 70.5 h is -4.38%. The same measure for `CCN(CCc1nccs1)C(=O)c1ncoc1C`: -13.2%; for `O=C(CCCc1nc(C2CC2)no1)N1CCCC(c2ccn[nH]2)C1` (centres undefined): -7.72%.

Turning to `COCCN(Cc1ccccn1)C(=O)c1ccc(=O)n(C)c1`, the cytotoxicity at 70.5 h came to 1.44%. Regarding `CCN(Cc1cccs1)C(=O)c1ccc(=O)n(C)c1`, the cytotoxicity at 70.5 h is 1.17%. The same measure for `O=C(CCN1C(=O)CCC1=O)Nc1ccc(OCC(F)(F)F)nc1`: -0.0202%; for `COc1c(Cl)cc(C(=O)NCCNc2ncccn2)cc1Cl`: 20.5%; for `Cc1noc(CCCC(=O)Nc2cc(C(F)(F)F)c[nH]c2=O)n1`: -3.91%. The same measure for `CNC(=O)c1ccc(NC(=O)NC(C)c2cc(C)oc2C)c(C)c1` (centres undefined): -5.7%; for `O=C(CCc1ccccc1)N1CCC(c2n[nH]c(C3CC3)n2)CC1`: -7.31%; for `COc1cc(OC)cc(C(=O)NCCCNc2ncccn2)c1`: -7.17%.

`NC(=O)C1=NC2=NS(=O)(=O)c3ccccc3N2N1Cc1ccc(Cl)cc1`: the cytotoxicity at 70.5 h amounted to 1.74%. Regarding `Cn1c(N)nnc1SCc1ccc(Cl)cc1Br`, the cytotoxicity at 70.5 h was -11.2%. In the case of `Cc1ccc(CNC(=O)c2c[nH]nc2NC(=O)C2COCCO2)cc1` (centres undefined), the cytotoxicity at 70.5 h is -0.405%. Next, `CCCNC(=O)CCC(=O)N1CCC(c2n[nH]c(C3CC3)n2)CC1`: 21.7%; `O=C(NCc1ccccc1OCC1CC1)C1CCOC1` (centres undefined): 1.2%.

Turning to `CCOc1cc(NC(=O)N(C)Cc2ncnn2C)ccc1C`, the cytotoxicity at 70.5 h was 20.6%.

For the molecule `CCOc1ccc(NC2CCN(C(C)C)C2=O)cn1` (centres undefined), the cytotoxicity at 70.5 h was -3.98%. The same measure for `COc1ccc(NC2CCN(C3CC3)C2=O)cn1` (centres undefined): 5.36%; for `CCC(C)Oc1cc(C(=O)Nc2nnc(C(C)C)[nH]2)ccn1` (centres undefined): 3.52%; for `CC(=O)N(CCc1ccccc1)CC(=O)NC(C)(C)C#N`: -2.72%. The same measure for `CCN(C(=O)NCc1cccnc1N(C)C)C(C)c1cccnc1` (centres undefined): -8.8%; for `Cc1nc(CNC2CCN(Cc3ccccc3)C2)sc1C` (centres undefined): -4.16%; for `CCC1COCCN1C(=O)NCc1cccc(-c2cnn(C)c2)c1` (centres undefined): -6.22%.

For the molecule `CCn1nc(C(=O)N2CCCC2c2noc(C3CC3)n2)ccc1=O` (centres undefined), the cytotoxicity at 70.5 h was found to be 12.1%. Next, `Cc1cccc(N(CCC#N)S(=O)(=O)CC2CCCCO2)c1` (centres undefined): 34.5%. For `CCCn1nc(C(=O)N2CCCC2c2noc(C)n2)ccc1=O` (centres undefined), the cytotoxicity at 70.5 h is -0.244%. The same measure for `N#CCCNC(=O)CN1CCC(c2cc3ccccc3[nH]2)CC1`: -10.1%. The same measure for `CN(C(=O)CN1CCC(c2cc3ccccc3[nH]2)CC1)C(C)(C)C#N`: -16.1%; for `CN(CCC#N)C(=O)CN1CCC(c2cc3ccccc3[nH]2)CC1`: 4.21%. Next, `Cc1cc(NC(C)C(=O)NCc2ccccc2)nc(-c2ccncc2)n1` (centres undefined): -13.1%; `CCN(CC)c1ccc(C(=O)NCC2(C(N)=O)CCOCC2)cn1`: -4.92%; `O=C(NC1CCN(c2ncccn2)CC1)c1cc2c([nH]c1=O)CCC2`: -10.7%. As to `CN(CC(F)(F)F)C(=O)CN1CCC(c2cc3ccccc3[nH]2)CC1`, the cytotoxicity at 70.5 h is -25%. Next, `O=C(CN1CCc2[nH]c3ccccc3c2C1)NCc1ccco1`: -10.8%. `CN(C)C(=O)C1CCN(Cn2ccc(-c3ccc(F)cc3)n2)CC1`: the cytotoxicity at 70.5 h is -12.5%. In the case of `CN1CCCC(N2CCN(c3cc(C(F)(F)F)ccn3)CC2)C1` (centres undefined), the cytotoxicity at 70.5 h was -5.61%.

Take `Cc1ccc(N2CCC(NCc3cnc(C4CCC4)s3)CC2)nc1`: the cytotoxicity at 70.5 h is 6.63%. The same measure for `CCC(C)NC(=O)CCc1ccnc2ccccc12` (centres undefined): 2.59%; for `O=C(NCc1ccc2c(c1)OCO2)N1CCCC2(C1)OCCO2`: -7.83%. In the case of `COc1c(Br)cccc1CCNC(=O)c1csnn1`, the cytotoxicity at 70.5 h was -11.9%. Next, `Cn1ccc(CNC(=O)N2CCC(C3(C)OCCO3)CC2)c1`: -8.7%; `CSCCC(NC(=O)c1ccc2ccccc2n1)C(=O)N(C)C` (centres undefined): 18%; `COCC(C)N(C)C(=O)NC1CCN(S(C)(=O)=O)CC1` (centres undefined): -6.45%. Next, `CSCCC(NC(=O)c1ccc2ccccc2n1)C(=O)NC(C)C` (centres undefined): -3.96%; `CCN(CCC(=O)OC)S(=O)(=O)c1cnc2c(c1)c(C)nn2C`: -4.3%. The same measure for `O=C(NCC1CCCCO1)c1ccc(-c2ccco2)[nH]c1=O` (centres undefined): -8.49%; for `Cc1ccc(C(=O)NCC2CCCCO2)c(=O)[nH]1` (centres undefined): -3.97%; for `Cc1nccn1-c1ccc(CNC(=O)c2ccc(O)nc2)cn1`: -9.46%. As for `O=C(NCC1CCCCO1)c1ccc(-c2cccs2)[nH]c1=O` (centres undefined), the cytotoxicity at 70.5 h is -0.0205%. Next, `CN(C1CCN(c2ccccn2)CC1)S(=O)(=O)N1CCOCC1`: -7.57%. With `CC(C)C(C)(C#N)NC(=O)Cn1cc(I)cn1` (centres undefined), the cytotoxicity at 70.5 h was -3.37%. With `CN(Cc1cc(F)ccc1F)CC(C)(CO)CO`, the cytotoxicity at 70.5 h is -5.92%. As to `Cc1nnc(SCCC(=O)N(C)Cc2c(F)cccc2Cl)[nH]1`, the cytotoxicity at 70.5 h is -3.01%.

For the molecule `Cc1nnc(CN(Cc2ccc(Cl)c(Cl)c2)C(C)C)o1`, the cytotoxicity at 70.5 h is -14%.

Consider `Cc1cccc(C2(NCCCS(C)(=O)=O)CCCC2)c1`, for which the cytotoxicity at 70.5 h was -6.96%. For `Cc1noc(CNc2c(N3CCCC3)cccc2N2CCCC2)n1`, the cytotoxicity at 70.5 h worked out at 7.99%.

Turning to `Cc1nnc(SCCC(=O)N(C)Cc2ccc(Cl)s2)[nH]1`, the cytotoxicity at 70.5 h is -14.2%.

`CN(Cc1cc(F)ccc1C#N)CC(C)(CO)CO`: the cytotoxicity at 70.5 h is -4.66%.

Regarding `Cc1sc(Br)cc1S(=O)(=O)NCCN`, the cytotoxicity at 70.5 h was -7.86%.
